The assay has as its system L1210 leukemia ip in BDF1 mice, survival T/C. In words: NCI In Vivo Anticancer Drug Screen. Data for tumor model L1210 Leukemia (intraperitoneal) in B6D2F1 (BDF1) mice. As to conditions: endpoint: mean survival time, higher = longer survival. Summed up:
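In this screen, tumor-bearing mice given compound are compared to those given vehicle, and their survival values are reported as a treated-to-control quotient.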

Setting [1] is: dose: 100.0 mg/kg/injection, schedule: Q01DX009 (ip), vehicle: Klucel (hydroxypropylcellulose) (HPC).
The mark [2] stands for this setting: dose: 100.0 mg/kg/injection, schedule: Q04DX002 (ip), vehicle: Klucel (hydroxypropylcellulose) (HPC).
Where [3] appears, read: dose: 200.0 mg/kg/injection, schedule: Q04DX002 (ip), vehicle: Klucel (hydroxypropylcellulose) (HPC).
Where [4] appears, read: dose: 100.0 mg/kg/injection, schedule: Q01DX009 (ip), vehicle: saline.
Where [5] appears, read: dose: 200.0 mg/kg/injection, schedule: Q01DX009 (ip), vehicle: saline.
Setting [6] is: dose: 400.0 mg/kg/injection, schedule: Q01DX009 (ip), vehicle: saline.
Setting [7] is: dose: 100.0 mg/kg/injection, schedule: Q04DX003 (ip), vehicle: Klucel (hydroxypropylcellulose) (HPC).
Where [8] appears, read: dose: 200.0 mg/kg/injection, schedule: Q04DX003 (ip), vehicle: Klucel (hydroxypropylcellulose) (HPC).
Where [9] appears, read: dose: 400.0 mg/kg/injection, schedule: Q04DX003 (ip), vehicle: Klucel (hydroxypropylcellulose) (HPC).
[10] abbreviates: dose: 100.0 mg/kg/injection, schedule: Q01DX001 (ip), vehicle: Klucel (hydroxypropylcellulose) (HPC).
[11] abbreviates: dose: 400.0 mg/kg/injection, schedule: Q01DX001 (ip), vehicle: Klucel (hydroxypropylcellulose) (HPC).
[12] abbreviates: dose: 100.0 mg/kg/injection, schedule: Q01DX009 (ip), vehicle: saline with Tween-80.
[13] abbreviates: dose: 200.0 mg/kg/injection, schedule: Q01DX009 (ip), vehicle: saline with Tween-80.
[14] abbreviates: dose: 100.0 mg/kg/injection, schedule: Q04DX003 (ip), vehicle: saline with Tween-80.
Where [15] appears, read: dose: 100.0 mg/kg/injection, schedule: Q01DX001 (ip), vehicle: saline.

Inconclusive results and toxic doses are left out.

`O=C(NC(C(=O)c1ccccc1)c1ccccc1)c1ccccc1` (stereo not drawn): the T/C (dose: 50.0 mg/kg/injection, schedule: Q04DX002 (ip), vehicle: Klucel (hydroxypropylcellulose) (HPC)) was 98 % of control; the T/C under setting [1] was 86 % of control; the T/C under setting [2] was 92 % of control; the T/C under setting [3] is 106 % of control; the T/C (dose: 400.0 mg/kg/injection, schedule: Q01DX009 (ip), vehicle: Klucel (hydroxypropylcellulose) (HPC)) was 101 % of control.
Turning to `CCCC(O)C(CC)CO` (stereo not drawn), the T/C was 102 % of control under setting [4], 100 % of control under setting [5] and 104 % of control under setting [6].
With `C=CC[P+](c1ccccc1)(c1ccccc1)c1ccccc1`, the T/C was 103 % of control (dose: 1.56 mg/kg/injection, schedule: Q01DX009 (ip), vehicle: Klucel (hydroxypropylcellulose) (HPC)); 101 % of control (dose: 3.12 mg/kg/injection, schedule: Q01DX009 (ip), vehicle: Klucel (hydroxypropylcellulose) (HPC)); 104 % of control (dose: 5.0 mg/kg/injection, schedule: Q01DX001 (ip), vehicle: saline); 94 % of control (dose: 6.25 mg/kg/injection, schedule: Q01DX009 (ip), vehicle: Klucel (hydroxypropylcellulose) (HPC)); 107 % of control (dose: 9.5 mg/kg/injection, schedule: Q01DX001 (ip), vehicle: other); 98 % of control (dose: 10.0 mg/kg/injection, schedule: Q01DX001 (ip), vehicle: saline). Moreover, the T/C reads like this: (dose: 12.5 mg/kg/injection, schedule: Q01DX009 (ip), vehicle: Klucel (hydroxypropylcellulose) (HPC)) 103 % of control; (dose: 19.0 mg/kg/injection, schedule: Q01DX001 (ip), vehicle: other) 100 % of control; (dose: 20.0 mg/kg/injection, schedule: Q01DX001 (ip), vehicle: saline) 102 % of control; (dose: 38.0 mg/kg/injection, schedule: Q01DX001 (ip), vehicle: other) 102 % of control.
With `C=C(CCCCC)C(=O)/C=C/c1ccc(Cl)cc1`, the T/C was 103 % of control (dose: 50.0 mg/kg/injection, schedule: Q01DX009 (ip), vehicle: Klucel (hydroxypropylcellulose) (HPC)); 97 % of control under setting [1]; 102 % of control under setting [7]; 95 % of control (dose: 200.0 mg/kg/injection, schedule: Q01DX009 (ip), vehicle: Klucel (hydroxypropylcellulose) (HPC)); 100 % of control under setting [8]; 103 % of control under setting [9].
On to `CCCC(O)CN` (stereo not drawn), for which the T/C runs as follows: (dose: 50.0 mg/kg/injection, schedule: Q01DX001 (ip), vehicle: carboxymethylcellulose (CMC)) 98 % of control; (dose: 100.0 mg/kg/injection, schedule: Q01DX001 (ip), vehicle: carboxymethylcellulose (CMC)) 102 % of control; (dose: 200.0 mg/kg/injection, schedule: Q01DX001 (ip), vehicle: carboxymethylcellulose (CMC)) 104 % of control; (dose: 400.0 mg/kg/injection, schedule: Q01DX001 (ip), vehicle: carboxymethylcellulose (CMC)) 116 % of control.
Consider `N#CCCN(CCc1ccccn1)C(=S)Nc1cccc(C(F)(F)F)c1`, for which the T/C reads like this: (dose: 100.0 mg/kg/injection, schedule: Q01DX009 (ip), vehicle: other) 110 % of control; (dose: 200.0 mg/kg/injection, schedule: Q01DX009 (ip), vehicle: other) 98 % of control; (dose: 400.0 mg/kg/injection, schedule: Q01DX009 (ip), vehicle: other) 110 % of control.
Turning to `CCCCn1c(C)nc2c([N+](=O)[O-])cc(C(F)(F)F)cc21`, the T/C under setting [10] was 104 % of control and the T/C under setting [11] is 98 % of control.
For the molecule `CCOC(=O)CNC(=O)Nc1ccc(C(=O)O)cc1`, the T/C by setting is: under setting [12], 93 % of control; under setting [13], 100 % of control.
With `C=CCNC(C)=O`, the T/C under setting [4] was 97 % of control; the T/C (dose: 100.0 mg/kg/injection, schedule: Q04DX003 (ip), vehicle: saline) was 98 % of control; the T/C under setting [5] was 97 % of control; the T/C (dose: 200.0 mg/kg/injection, schedule: Q04DX003 (ip), vehicle: saline) was 97 % of control; the T/C under setting [6] was 97 % of control.
`CC(=O)N(C)c1ccc(C)cc1C`: the T/C is, setting by setting: under setting [14], 104 % of control; (dose: 200.0 mg/kg/injection, schedule: Q04DX003 (ip), vehicle: saline with Tween-80) 98 % of control; (dose: 400.0 mg/kg/injection, schedule: Q04DX003 (ip), vehicle: saline with Tween-80) 93 % of control.
`O=C(COc1ccc(Cl)cc1)Nc1cc(Cl)ccc1Cl`: the T/C was 113 % of control under setting [10]; 88 % of control under setting [7]; 95 % of control (dose: 200.0 mg/kg/injection, schedule: Q01DX001 (ip), vehicle: Klucel (hydroxypropylcellulose) (HPC)); 88 % of control under setting [8]; 97 % of control under setting [11]; 90 % of control under setting [9].
On to `CNc1c(Cl)n(C)c(=O)n(C)c1=O`, for which the T/C was 101 % of control (dose: 50.0 mg/kg/injection, schedule: Q01DX001 (ip), vehicle: saline); 101 % of control under setting [15]; 104 % of control (dose: 200.0 mg/kg/injection, schedule: Q01DX001 (ip), vehicle: saline); 101 % of control (dose: 400.0 mg/kg/injection, schedule: Q01DX001 (ip), vehicle: saline).
As to `O=C(c1ccccc1)C1CCCC1`, the T/C was 89 % of control under setting [2] and 105 % of control under setting [3].
Consider `CCC(C)(OC(=O)c1ccc([N+](=O)[O-])cc1)C(C)C` (stereo not drawn), for which the T/C is 95 % of control (dose: 75.0 mg/kg/injection, schedule: Q04DX002 (ip), vehicle: saline with Tween-80) and 91 % of control (dose: 150.0 mg/kg/injection, schedule: Q04DX002 (ip), vehicle: saline with Tween-80).
Consider `CCCCN(CCCC)/C(=C/C(=O)OC)C(=O)OC`, for which the T/C under setting [7] was 94 % of control, the T/C under setting [8] was 100 % of control and the T/C under setting [9] is 94 % of control.
Regarding `CCN(CC)CCCNC(c1ccccc1)C(Cl)(Cl)Cl` (stereo not drawn), the T/C under setting [15] was 96 % of control.
`c1ccc(CNc2cccc3c(NCc4ccccc4)cccc23)cc1`: the T/C by setting is: (dose: 100.0 mg/kg/injection, schedule: Q01DX001 (ip), vehicle: saline with Tween-80) 87 % of control; under setting [12], 86 % of control; under setting [14], 88 % of control; (dose: 200.0 mg/kg/injection, schedule: Q01DX001 (ip), vehicle: saline with Tween-80) 95 % of control; under setting [13], 93 % of control; (dose: 400.0 mg/kg/injection, schedule: Q01DX001 (ip), vehicle: saline with Tween-80) 88 % of control. Moreover, under “dose: 400.0 mg/kg/injection, schedule: Q01DX009 (ip), vehicle: saline with Tween-80”, the T/C was 95 % of control.
In the case of `NC(=S)c1cn(C2OC(CO)C(O)C2O)c2ncncc12` (stereo not drawn), the T/C runs as follows: (dose: 100.0 mg/kg/injection, schedule: Q01DX005 (ip), vehicle: saline) 164 % of control; (dose: 200.0 mg/kg/injection, schedule: Q01DX005 (ip), vehicle: saline) 167 % of control.
Take `O=C(C1=NNC(c2ccccc2)C1C(=O)c1ccccc1)c1ccccc1` (stereo not drawn): the T/C is, setting by setting: (dose: 100.0 mg/kg/injection, schedule: Q01DX001 (ip), vehicle: steriod suspending solution) 93 % of control; (dose: 200.0 mg/kg/injection, schedule: Q01DX001 (ip), vehicle: steriod suspending solution) 110 % of control; (dose: 400.0 mg/kg/injection, schedule: Q01DX001 (ip), vehicle: steriod suspending solution) 101 % of control.

For the origin of these results see PubChem BioAssay AID248 (DTP/NCI, 2004).
